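Method: 48-hour compound exposure of cells in 96-well plates, five concentrations, linear interpolation of endpoints. At the TGI there is no net growth.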
What was measured:
Experiment in all cases: NCI-60 cell line screen, 48 h
OVCAR-3 ovarian = system: OVCAR-3 ovarian
HL-60(TB) leukemia = system: HL-60(TB) leukemia
COLO 205 colon = system: COLO 205 colon
DU-145 prostate = system: DU-145 prostate
HOP-62 NSCLC = system: HOP-62 NSCLC
SW-620 colon = system: SW-620 colon
CCRF-CEM leukemia = system: CCRF-CEM leukemia
ACHN renal = system: ACHN renal
PC-3 prostate = system: PC-3 prostate
U251 CNS = system: U251 CNS
RPMI-8226 leukemia = system: RPMI-8226 leukemia
SK-OV-3 ovarian = system: SK-OV-3 ovarian
HT29 colon = system: HT29 colon
A549 NSCLC = system: A549 NSCLC
NCI-H226 lung = system: NCI-H226 lung
RXF 393 renal = system: RXF 393 renal
UACC-62 melanoma = system: UACC-62 melanoma
HOP-92 NSCLC = system: HOP-92 NSCLC
UO-31 renal = system: UO-31 renal
MOLT-4 leukemia = system: MOLT-4 leukemia

| Compound | TGI (OVCAR-3 ovarian) [µM] | TGI (HL-60(TB) leukemia) [µM] | TGI (COLO 205 colon) [µM] | TGI (DU-145 prostate) [µM] | TGI (HOP-62 NSCLC) [µM] | TGI (SW-620 colon) [µM] | TGI (CCRF-CEM leukemia) [µM] | TGI (ACHN renal) [µM] | TGI (PC-3 prostate) [µM] | TGI (U251 CNS) [µM] | TGI (RPMI-8226 leukemia) [µM] | TGI (SK-OV-3 ovarian) [µM] | TGI (HT29 colon) [µM] | TGI (A549 NSCLC) [µM] | TGI (NCI-H226 lung) [µM] | TGI (RXF 393 renal) [µM] | TGI (UACC-62 melanoma) [µM] | TGI (HOP-92 NSCLC) [µM] | TGI (UO-31 renal) [µM] | TGI (MOLT-4 leukemia) [µM] |
| --- | --- | --- | --- | --- | --- | --- | --- | --- | --- | --- | --- | --- | --- | --- | --- | --- | --- | --- | --- | --- |
| CC(C)=C1C(=O)C[C@]2(C)C[C@H]3O[C@]3(C)CC[C@@H]3O[C@@]3(C)CC[C@@H]12 | > 50 | > 50 | > 50 | > 50 | > 50 | > 50 | > 50 | > 50 | > 50 | > 50 | > 50 | > 50 | > 50 | > 50 | > 50 | > 50 | > 50 | > 50 | > 50 | > 50 |
| CC(=O)Oc1c(C)c2c(c3ncccc13)OC(C)C2 (stereo not given) | > 100 | 38.8 | 35.7 | 29.8 | 30.9 | 27.2 | 38.5 | 24.5 | 92.1 | 28.8 | 45.1 | 54.2 | 36.8 | 26.2 | 32.8 | 30.9 | 24.6 | 28.2 | 28.4 | 25.9 |
| O=C(OCc1ccccc1)N(CCCCN(CCCNC(=O)C(F)(F)F)C(=O)OCc1ccccc1)CCCNC(=O)C(F)(F)F | > 100 | > 100 | > 100 | > 100 | > 100 | > 100 | > 100 | > 100 | > 100 | > 100 | > 100 | > 100 | > 100 | > 100 | > 100 | > 100 | > 100 | > 100 | > 100 | > 100 |
| CN(C)CCNc1ccc([N+](=O)[O-])c2sc3ccccc3c(=O)c12 | 32.6 | 12.5 | 14.3 | 31.5 | 8.36 | > 100 | > 100 | 13.2 | 21.6 | > 100 | 7.52 | > 100 | 32.1 | 20.2 | 51.2 | 38.1 | 16.8 | 51.2 | 30.8 | > 100 |
| C=Cc1nc2c(Cl)ncnc2n1Cc1ccccc1 | 7.95 | 9.17 | 3.08 | 7.2 | 20.1 | 23.2 | > 100 | 3.59 | 14.5 | 22.6 | 18.3 | 31 | 7.28 | 29.1 | 17 | 7.84 | 19.8 | 4.66 | 6.02 | > 28.4 |

— PubChem BioAssay (NCI)
